The values that follow come from ChEMBL document CHEMBL5260848, “Recent advancements in the development of bioactive pyrazoline derivatives” (Eur J Med Chem, 2020).

For test [1], the system named is Escherichia coli. Nature of the test: microbe, parasite or virus in culture.
Test [2] concerns Pseudomonas aeruginosa. Kind of test: microbe, parasite or virus in culture.
For a further test, the system named is HeLa. Kind of test: Cytotoxicity against human HeLa cells assessed as reduction in cell viability. It is filed as functional, cell-based.
The subject of test [3] is HepG2. Nature of the test: Cytotoxicity against human HepG2 cells assessed as reduction in cell viability. It is filed as functional, cell-based.
The next test addresses Carbonic anhydrase 2 (Homo sapiens, UniProt P00918). Nature of the test: Inhibition of human CA2 by UV spectrophotometric analysis.
Another test addresses Acetylcholinesterase (Homo sapiens, UniProt P22303).
Another test deals with Carbonic anhydrase 1 (Homo sapiens, UniProt P00915). Nature of the test: Inhibition of human CA1 by UV spectrophotometric analysis.
Carbonic anhydrase 1, sequence (P00915 whole entry): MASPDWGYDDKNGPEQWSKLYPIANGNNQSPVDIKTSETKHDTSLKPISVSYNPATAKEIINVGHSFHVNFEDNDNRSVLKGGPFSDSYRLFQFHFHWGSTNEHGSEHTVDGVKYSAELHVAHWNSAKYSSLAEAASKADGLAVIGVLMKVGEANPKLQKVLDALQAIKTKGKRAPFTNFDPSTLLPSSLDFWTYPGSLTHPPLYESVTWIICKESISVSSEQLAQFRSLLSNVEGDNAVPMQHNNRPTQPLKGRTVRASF
The test system of the next test is A549. Kind of test: Cytotoxicity against human A549 cells assessed as reduction in cell viability. Format: functional, cell-based.
The test system of a further test is Rhizopus arrhizus. Nature of the test: Antifungal activity against Rhizopus oryzae. It is filed as functional.
The test system of test [4] is Staphylococcus aureus. Nature of the test: Antibacterial activity against Staphylococcus aureus. It is filed as functional.
Another test deals with MCF7. Kind of test: cells. As to conditions: Homo sapiens.
The subject of test [5] is Plasmodium falciparum. Kind of test: In vivo antimalarial activity against Plasmodium berghei K173 infected in mouse assessed as reduction in parasitemia at 100 mg/kg, ip measured after 6 days by giemsa staining based microscopic analysis relative to control. As to conditions: time 6 day. Format: functional. Details: scale not given: the % may be the effect or the level left.

Test [6] deals with Plasmodium falciparum. Nature of the test: In vivo antimalarial activity against Plasmodium berghei K173 infected in mouse assessed as chemo-supression percentage at 50 mg/kg, ip by giemsa staining based microscopic analysis relative to control. It is filed as functional.
Test [7] concerns Plasmodium falciparum. Nature of the test: Antimalarial activity against chloroquine-sensitive Plasmodium falciparum NF54 measured after 72 hrs by giemsa staining based analysis. Format: functional, organism-based. Particulars: NF54, 72 h.
Test [8] concerns Plasmodium falciparum. Kind of test: In vivo antimalarial activity against Plasmodium berghei K173 infected in mouse assessed as reduction in parasitemia at 50 mg/kg, ip measured after 6 days by giemsa staining based microscopic analysis relative to control. It is filed as functional. Set-up: scale not given: the % may be the effect or the level left. Particulars: time 6 day.
The next test concerns Hemozoin. Nature of the test: Inhibition of Beta-hematin in Plasmodium berghei.
The subject of test [9] is Plasmodium falciparum. Kind of test: In vivo antimalarial activity against Plasmodium berghei K173 infected in mouse assessed as chemo-supression percentage at 100 mg/kg, ip by giemsa staining based microscopic analysis relative to control. It is filed as functional.
The subject of a further test is Mus musculus. Kind of test: Anticonvulsant activity in BALB/c mouse assessed as increase in survival rate at 60 mg/kg, ip by PTZ method relative to control. It is filed as functional.
In test [10] the test system is HepG2. Nature of the test: Cytotoxicity against human HepG2 cells. It is filed as functional, cell-based.
Test [11] deals with Plasmodium falciparum. Nature of the test: Antimalarial activity against chloroquine-sensitive Plasmodium falciparum 3D7. Format: functional, organism-based.
For test [12], the system named is RAW264.7. Nature of the test: Antiinflammatory activity in LPS-induced mouse RAW264.7 cells assessed as inhibition of LPS induced NO production. Format: functional, cell-based.
Test [13] relates to RAW264.7. Kind of test: Cytotoxicity against mouse RAW264.7 cells relative to control. Format: functional.
The test system of the next test is Huh-7. Kind of test: Cytotoxicity against human Huh-7 cells. Format: functional, cell-based.
A short description of test [14]: Cytotoxicity against human Panel NCI-58 (58 carcinoma cell lines) cells by SRB method. It is filed as functional. Particulars: read-out: LC50 (the source's name). In general terms: The SRB assay estimates cell density from bound dye.
In test [15] the test system is UO-31. Nature of the test: Cytotoxicity against human UO-31 cells by SRB method. It is filed as functional. As to conditions: read-out: LC50 (the source's name).
Test [16] in a line: Growth inhibition of human Panel NCI-58 (58 carcinoma cell lines) cells by SRB method. It is filed as functional.
The subject of test [17] is UO-31. Kind of test: Growth inhibition of human UO-31 cells by SRB method. Format: functional.
The next test has as its system Streptococcus pyogenes. Kind of test: Antibacterial activity against Streptococcus pyogenes assessed as inhibition of microbial growth. It is filed as functional.
For test [18], the system named is Candida albicans. Nature of the test: Antifungal activity against Candida albicans. Format: functional.
Test [19] has as its system Staphylococcus aureus. Nature of the test: Antibacterial activity against Staphylococcus aureus assessed as inhibition of microbial growth. It is filed as functional.
For a further test, the system named is Aspergillus clavatus. Kind of test: Antifungal activity against Aspergillus clavatus. It is filed as functional.
A further test concerns Aspergillus niger. Kind of test: Antifungal activity against Aspergillus niger. Format: functional.
Test [20] deals with Escherichia coli. Kind of test: Antibacterial activity against Escherichia coli. Format: functional.
Another test deals with Bacillus subtilis. Nature of the test: Antibacterial activity against Bacillus subtilis by agar dilution method. It is filed as functional.
Test [21] relates to Staphylococcus aureus. Kind of test: Potency index, ratio of ampicillin MIC to compound MIC for Staphylococcus aureus by agar dilution method. It is filed as functional.
Test [22] concerns Escherichia coli. Nature of the test: Antibacterial activity against Escherichia coli by agar dilution method. Format: functional. (In general: In agar dilution, organisms are placed on agar that contains the substance at set levels.)
A short description of test [23]: Antioxidant activity assessed as DPPH radical scavenging activity. It is filed as functional.
The subject of test [24] is Pseudomonas aeruginosa. Nature of the test: Antibacterial activity against Pseudomonas aeruginosa by agar dilution method. It is filed as functional.
In test [25] the test system is Candida albicans. Kind of test: Antifungal activity against Candida albicans by agar dilution method. Format: functional.
The test system of test [26] is Escherichia coli. Nature of the test: Potency index, ratio of ampicillin MIC to compound MIC for Escherichia coli by agar dilution method. Format: functional.
Test [27] has as its system Staphylococcus aureus. Kind of test: Antibacterial activity against Staphylococcus aureus by agar dilution method. Format: functional.

The structures appear in SMILES notation. Values after ≈ are worked out from the molar mass of the structure shown. Where only a bound is given, the exact number is not on record here.

Acetylcholinesterase, sequence (P22303 whole entry): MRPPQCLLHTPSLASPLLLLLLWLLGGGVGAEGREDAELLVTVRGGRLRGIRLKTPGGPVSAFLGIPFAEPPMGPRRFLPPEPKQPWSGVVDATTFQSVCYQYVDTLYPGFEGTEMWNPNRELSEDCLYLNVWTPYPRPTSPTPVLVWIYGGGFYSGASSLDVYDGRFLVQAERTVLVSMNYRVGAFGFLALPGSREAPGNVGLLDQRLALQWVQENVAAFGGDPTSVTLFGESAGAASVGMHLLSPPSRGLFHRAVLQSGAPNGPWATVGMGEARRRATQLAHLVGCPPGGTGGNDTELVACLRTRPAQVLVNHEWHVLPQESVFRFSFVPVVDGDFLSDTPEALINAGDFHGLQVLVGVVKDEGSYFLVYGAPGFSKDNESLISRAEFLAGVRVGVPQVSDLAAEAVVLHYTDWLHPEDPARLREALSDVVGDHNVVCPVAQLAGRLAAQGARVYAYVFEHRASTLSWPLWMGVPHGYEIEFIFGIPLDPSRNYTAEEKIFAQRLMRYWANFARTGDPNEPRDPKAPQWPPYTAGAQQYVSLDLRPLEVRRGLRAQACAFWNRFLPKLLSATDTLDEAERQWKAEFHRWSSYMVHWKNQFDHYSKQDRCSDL

Turning to `O=C(c1ccncc1)N1N=C(c2ccc(Cl)cc2)CC1c1cc2ccccc2nc1Cl` (centres undefined), the MIC against Escherichia coli [1] and with Pseudomonas aeruginosa [2] was 12.5 µg/mL (≈ 27.9 µM) throughout.
As for `COc1cc(C2CC(c3ccc(F)cc3)=NN2C(N)=S)cc(OC)c1OC` (centres undefined), the IC50 (commonly the midpoint of a concentration-inhibition curve) with HeLa was 7.63 µM; in the test on HepG2 [3], 6.78 µM.
For the compound `COc1ccc(C2CC(c3ccc(Cl)cc3)=NN2c2ccc(S(N)(=O)=O)cc2)cc1OC` (centres undefined), the figures for the Ki on Carbonic anhydrase 2, on Acetylcholinesterase and on Carbonic anhydrase 1 were 27.4 nM, 37.7 nM and 27.9 nM, respectively.
With `COc1cc(C2CC(c3ccc(Br)cc3)=NN2C(N)=S)cc(Br)c1O` (centres undefined), the IC50 in the test on A549 worked out at 51 µM.
For `COc1ccc(C2CC(c3cc4ccccc4oc3=O)=NN2c2ccccc2)cc1OC` (centres undefined), the MIC with Rhizopus arrhizus and with Staphylococcus aureus [4] was 12.5 µg/mL (≈ 29.3 µM) in each case.
As for `CNC(=S)N1N=C(c2nnn(-c3ccc(-n4nnc(C5=NN(C(=S)NC)C(c6ccccc6)C5)c4C)cc3)c2C)CC1c1ccccc1` (centres undefined), the IC50 in the test on MCF7 was 32.3 µg/mL (≈ 47.8 µM).
As to `COc1cc(C)c(C2C=C(c3cc(OC)c(OC)c(OC)c3)N(C(=O)OC(C)C)N2C(=O)OC(C)C)cc1C(C)C` (centres undefined), the Activity in the test with Plasmodium falciparum [5] is 4.62%; with Plasmodium falciparum [6] it was 25.29%; with Plasmodium falciparum [8], 8.03%; in the test with Plasmodium falciparum [9], 55.6%. The IC50 was less than 2000 nM in the test on Plasmodium falciparum [7] and 38.8 µM with Hemozoin.
As to `O=C(Nc1ccc(Cl)cc1)N1N=C(c2ccc(Cl)s2)CC1c1c(Cl)cccc1Cl` (centres undefined), the survival at 60 mg/kg in the test with Mus musculus stood at 100%.
In the test on HepG2 [10], `CN(C)c1ccc(C2CC(c3c4ccccc4cc4ccccc34)=NN2c2nc(-c3ccc(F)cc3)c(C#N)c(=O)[nH]2)cc1` (centres undefined) gave an IC50 of 4.21 µg/mL (≈ 7.28 µM).
In the test on Plasmodium falciparum [11], `COc1cc(C2CC(c3cc4ccccc4oc3=O)=NN2C(=O)c2ccncc2)cc(OC)c1OC` (centres undefined) had an IC50 of 9.68 µg/mL (≈ 19.9 µM).
In the case of `C[C@]12CC[C@H]3[C@@H](CC=C4C[C@@H](O)CC[C@@]43C)[C@@H]1CC[C@@H]2C1=NN(C(N)=S)C(c2ccccc2Cl)C1` (some centres undefined), the IC50 with RAW264.7 [12] turned out to be 860 nM. Besides, the Activity in the test with RAW264.7 [13] is more than 90%.
In turn, `COc1cc(C2CC(c3c4ccccc4cc4ccccc34)=NN2c2nc(-c3ccc(F)cc3)c(C#N)c(=O)[nH]2)cc(OC)c1OC` (centres undefined) had an IC50 in the test on Huh-7 of 4.78 µg/mL (≈ 7.64 µM).
For the compound `O=C(/C=C/c1ccc(C(F)(F)F)cc1)c1ccc(Nc2nc(NCCO)nc(NCCO)n2)cc1`, the CC50 came out at 5.15 µM in [14] and 19.5 µM in the test on UO-31 [15]. Also, the concentration for 50% growth inhibition (GI50) (usually the concentration giving 50% growth inhibition) was determined as 569 nM in test [16] and 1500 nM with UO-31 [17].
With `COc1ccc(C2CC(c3ccccc3)=NN2c2ccc(S(N)(=O)=O)cc2)cc1OC` (centres undefined), the Ki (commonly a measure of affinity in units of concentration, obtained from inhibition or displacement) on Carbonic anhydrase 2 came out at 27.4 nM; at Acetylcholinesterase, 37.7 nM; at Carbonic anhydrase 1, 27.9 nM.
With `O=C(c1ccncc1)N1N=C(c2ccc(Cl)cc2Cl)CC1c1cc2ccccc2nc1Cl` (centres undefined), the MIC amounted to 12.5 µg/mL in the test on Streptococcus pyogenes; 12.5 µg/mL (≈ 25.9 µM) against Candida albicans [18]; 12.5 µg/mL in the test on Staphylococcus aureus [19]; 50 µg/mL (≈ 104 µM) with Aspergillus clavatus; 12.5 µg/mL (≈ 25.9 µM) against Aspergillus niger.
In the case of `N#Cc1c(-c2ccc(F)cc2)nc(N2N=C(c3c4ccccc4cc4ccccc34)CC2c2ccc(F)cc2)[nH]c1=O` (centres undefined), the IC50 worked out at 6.13 µg/mL (≈ 11.1 µM) in the test with Huh-7 and 5.34 µg/mL (≈ 9.65 µM) in the test with HepG2 [10].
As for `COc1cc(C2CC(c3cc4ccccc4oc3=O)=NN2c2ccccc2)cc(OC)c1OC` (centres undefined), the MIC in the test with Escherichia coli [20] worked out at 12.5 µg/mL (≈ 27.4 µM); against Rhizopus arrhizus, 12.5 µg/mL (≈ 27.4 µM); in the test with Staphylococcus aureus [4], 10 µg/mL (≈ 21.9 µM). This compound came in with an IC50 in the test on Plasmodium falciparum [11] of 11.6 µg/mL (≈ 25.5 µM).
Consider `COc1ccc2c(c1)cc(C1CC(c3cc(Br)ccc3O)=NN1)c1nnnn12` (centres undefined), for which the MIC with Bacillus subtilis was found to be 25 µg/mL (≈ 56.9 µM); against Escherichia coli [22] it was 50 µg/mL (≈ 114 µM); in the test on Pseudomonas aeruginosa [24], 25 µg/mL (≈ 56.9 µM); in the test with Candida albicans [25], 25 µg/mL (≈ 56.9 µM); in the test with Staphylococcus aureus [27] it was 50 µg/mL (≈ 114 µM). The Ratio is recorded as 10 with Staphylococcus aureus [21] and 2 in the test with Escherichia coli [26]. The IC50 in test [23] stood at 21 µg/mL (≈ 47.8 µM).
